Measurements published in US5968910A, “Compositions containing two or three inhibitors of different HIV reverse transcriptases” (priority 1994, dated 1999).
≈ marks a conversion by molar mass, not a printed value. Read-outs that look alike come from different tables or passages of the source.

What was measured:
[1] = system: HIV-1/II(0.1) 100-Ile; assay: Sensitivity of mutant HIV-1 strain in CEM cell cultures; format: cell-based; conditions: Table 5
Method: (§1) CEM cells were suspended at 250,000 cells per ml of culture medium and infected with wild-type HIV-I(IIIB) or mutant HIV-1 strains at 100 50% cell culture infective doses per ml. Then 100 μl of the infected cell suspensions was added to 200-μl microtiter plate wells containing 100 μl of an appropriate dilution of the test compounds. After 4 days incubation at 37° C., the cell cultures were examined for syncytium formation.

[2] = system: HIV-1/TIBO R82150 (100-Ile); assay: as above; format: cell-based; conditions: CEM cells, Table 1
Method: as §1

[3] = system: HIV-1/I(0.1) 103-Asn; assay: as above; format: cell-based; conditions: Table 5
Method: as §1

[4] = system: HIV-1/TSAO-m^3 T (138-Lys); assay: as above; format: cell-based; conditions: CEM cells, Table 1
Method: as §1

[5] = system: HIV-1/TIBO R82913 (103-Asn); assay: as above; format: cell-based; conditions: CEM cells, Table 1
Method: as §1

[6] = system: HIV-1/V(0.5) 103-Asn; assay: as above; format: cell-based; conditions: Table 5
Method: as §1

[7] = system: HIV-1/B 101Glu; assay: as above; format: cell-based; conditions: Table 5
Method: as §1

[8] = system: HIV-1/Pyr (181-Cys); assay: as above; format: cell-based; conditions: CEM cells, Table 1
Method: as §1

[9] = system: HIV-1/III(0.1) 103-Asn; assay: as above; format: cell-based; conditions: Table 5
Method: as §1

[10] = system: HIV-1/Nev (106-Ala); assay: as above; format: cell-based; conditions: CEM cells, Table 1
Method: as §1

[11] = system: HIV-1/V(0.1) 101-Ile + 141-Glu; assay: as above; format: cell-based; conditions: Table 5
Method: as §1

[12] = system: HIV-1(IIIB) (WT); assay: microbe, parasite or virus in culture; format: cell-based; conditions: Human immunodeficiency virus 1, IIIB, CCRF-CEM
Method: as §1

[13] = system: HIV-1/TIBO R82150 (100-Ile); conditions: background, Balzarini I/II; cited from earlier work
[14] = biological target: HIV-1 RT (WT) (Human immunodeficiency virus type 1 group M subtype B, UniProt P03366); assay: biochemical; conditions: IC50, anti-HIV-1 RT (WT) activity
Method: The reaction mixture (50 μl) contained 50 mM Tris.HCl, pH 7.8, 5 mM dithiothreitol, […] glutathione, 500 μM EDTA, 150 mM KCl, 5 mM MgCl2, 1.25 μg of bovine serum albumin, a fixed concentration of the labeled substrate [2,8-^3 H]dGTP (2.95 μM, 2 μCi), a fixed concentration of the template/primer poly(C).oligo(dG) (0.1 mM), 0.06% Triton X-100, 5 μl of inhibitor solution [containing various concentrations (5-fold dilutions) of the test compounds], and 5 μl of the RT preparation. The reaction mixtures were incubated at 37° C. for 30 min, at which time 100 μl of calf thymus DNA (150 μg/ml), 2 ml of Na4 P2 07 (0.1 M in 1M HCl), and 2 ml of trichloroacetic acid (10%, v/v) were added. The solutions were kept on ice for 30 min, after which the acid-insoluble material was washed and analyzed for radioactivity.
Compounds I, III, IV and V were evaluated for their inhibitory effect on recombinant HIV-1 RT.

[15] = system: HIV-1/IV(0.1) 103-Thr; assay: Sensitivity of mutant HIV-1 strain in CEM cell cultures; format: cell-based; conditions: Table 5
Method: as §1

[16] = system: HIV-1(IIIB); assay: Knock-out concentrations: breakthrough of HIV-1(IIIB)-induced cytopathicity in CEM cell cultures; format: cell-based
Method: The culture medium consisted of RPMI 1640 containing 10% fetal bovine serum, 2 mM L-glutamine, and 0.075% NaHCO3. The multiplicity of the initial infection was ~1000 times the CCID50 (50% cell culture infective dose). Passages were performed every 3 to 4 days by adding 0.5 to 1.0 ml of the infected culture supernatant to 5 ml of a suspension containing 4×10^5 uninfected CEM cells per ml. Syncytium formation was used as a parameter of virus breakthrough in the cell cultures. In the drug combination experiments, the compounds were combined at the same initial concentrations as used for the two lowest concentrations in the single-drug experiments.
The drug concentrations were kept constant throughout the whole time period of the experiment (10 subcultivations or 35 days). Then the drugs were removed from the cell cultures, and the cells were further subcultured for at least 5 additional passages.

[17] = Human immunodeficiency virus 1, CCRF-CEM, read-out: EC50
[18] = Human immunodeficiency virus 1, CCRF-CEM, read-out: 50% Effective Concentration
[19] = CEM cells, Table 1, read-out: 50% Effective Concentration
[20] = HIV-1 (III8), Table 5, read-out: EC50

CC(C)=CCN1Cc2cc(Cl)cc3[nH]c(=S)n(c23)C[C@@H]1C [TIBO R82913, reference compound]
EC50 [1, 17]: ≥ 5 mg/L | EC50 [2, 18]: 1.75 mg/L (≈ 5.44 µM) | EC50 [3, 17]: 1.1 mg/L (≈ 3.42 µM) | EC50 [4, 18]: 0.3 mg/L (≈ 0.932 µM) | EC50 [5, 18]: 4.3 mg/L (≈ 13.4 µM) | EC50 [6, 17]: 5 mg/L (≈ 15.5 µM) | EC50 [7, 17]: > 2.5 mg/L | EC50 [8, 18]: 2 mg/L (≈ 6.21 µM) | EC50 [9, 17]: 0.23 mg/L (≈ 0.715 µM) | EC50 [10, 18]: 0.5 mg/L (≈ 1.55 µM) | EC50 [11, 17]: 0.16 mg/L (≈ 0.497 µM) | EC50 [12, 19]: 0.016 mg/L (≈ 0.0497 µM) | EC50 [12, 20]: 0.02 mg/L (≈ 0.0621 µM) | resistance of HIV-1 strains containing the 100 Leu→Ile mutation in their RT [13]: resistant | IC50 [14]: 2.05 µM

Cc1ccnc2c1NC(=O)c1cccnc1N2C1CC1 [Nevirapine, reference compound]
EC50 [1]: ≥ 5 mg/L | 50% Effective Concentration [2]: 0.100 µg/mL | EC50 [3]: 1.7 mg/L (≈ 6.38 µM) | 50% Effective Concentration [4]: 0.030 µg/mL | 50% Effective Concentration [5]: 1.5 µg/mL | EC50 [6]: ≥ 5 mg/L | EC50 [7]: > 2.5 mg/L | 50% Effective Concentration [8]: 2.30 µg/mL | EC50 [9]: 0.38 mg/L (≈ 1.43 µM) | EC50 [15]: 2.7 mg/L (≈ 10.1 µM) | 50% Effective Concentration [10]: 2.3 µg/mL | EC50 [11]: 0.24 mg/L (≈ 0.901 µM) | EC50 [12, 19]: 0.007 mg/L (≈ 0.0263 µM) | EC50 [12, 20]: 0.007 mg/L (≈ 0.0263 µM) | HIV-1-induced cytopathicity in cell culture ([16]; 0.1 μg/ml, day 4 post infection): 37.5 percentage of control | HIV-1-induced cytopathicity in cell culture ([16]; 0.1 μg/ml, day 8 post infection): 87.5 percentage of control | HIV-1-induced cytopathicity in cell culture ([16]; 0.1 μg/ml, day 11 post infection): 100 percentage of control | HIV-1-induced cytopathicity in cell culture ([16]; 0.1 μg/ml, day 14 post infection): 100 percentage of control | HIV-1-induced cytopathicity in cell culture ([16]; 0.1 μg/ml, day 17 post infection): 100 percentage of control | HIV-1-induced cytopathicity in cell culture ([16]; 0.1 μg/ml, day 21 post infection): 100 percentage of control | HIV-1-induced cytopathicity in cell culture ([16]; 0.1 μg/ml, day 25 post infection): 100 percentage of control | HIV-1-induced cytopathicity in cell culture ([16]; 0.1 μg/ml, day 28 post infection): 100 percentage of control | HIV-1-induced cytopathicity in cell culture ([16]; 0.1 μg/ml, day 32 post infection): 100 percentage of control | HIV-1-induced cytopathicity in cell culture ([16]; 0.1 μg/ml, day 35 post infection): 100 percentage of control | HIV-1-induced cytopathicity in cell culture ([16]; 0.1 μg/ml, day 39 post infection, compound absent from day 35): 100 percentage of control | HIV-1-induced cytopathicity in cell culture ([16]; 0.1 μg/ml, day 42 post infection, compound absent from day 35): 100 percentage of control | HIV-1-induced cytopathicity in cell culture ([16]; 0.1 μg/ml, day 46 post infection, compound absent from day 35): 100 percentage of control | HIV-1-induced cytopathicity in cell culture ([16]; 0.1 μg/ml, day 49 post infection, compound absent from day 35): 100 percentage of control | HIV-1-induced cytopathicity in cell culture ([16]; 0.1 μg/ml, day 53 post infection, compound absent from day 35): 100 percentage of control | HIV-1-induced cytopathicity in cell culture ([16]; 0.5 μg/ml, day 4 post infection): 6.25 percentage of control | HIV-1-induced cytopathicity in cell culture ([16]; 0.5 μg/ml, day 8 post infection): 25 percentage of control | HIV-1-induced cytopathicity in cell culture ([16]; 0.5 μg/ml, day 11 post infection): 50 percentage of control | HIV-1-induced cytopathicity in cell culture ([16]; 0.5 μg/ml, day 14 post infection): 100 percentage of control | HIV-1-induced cytopathicity in cell culture ([16]; 0.5 μg/ml, day 17 post infection): 100 percentage of control | HIV-1-induced cytopathicity in cell culture ([16]; 0.5 μg/ml, day 21 post infection): 100 percentage of control | HIV-1-induced cytopathicity in cell culture ([16]; 0.5 μg/ml, day 25 post infection): 100 percentage of control | HIV-1-induced cytopathicity in cell culture ([16]; 0.5 μg/ml, day 28 post infection): 100 percentage of control | HIV-1-induced cytopathicity in cell culture ([16]; 0.5 μg/ml, day 32 post infection): 100 percentage of control | HIV-1-induced cytopathicity in cell culture ([16]; 0.5 μg/ml, day 35 post infection): 100 percentage of control | HIV-1-induced cytopathicity in cell culture ([16]; 0.5 μg/ml, day 39 post infection, compound absent from day 35): 100 percentage of control | HIV-1-induced cytopathicity in cell culture ([16]; 0.5 μg/ml, day 42 post infection, compound absent from day 35): 100 percentage of control | HIV-1-induced cytopathicity in cell culture ([16]; 0.5 μg/ml, day 46 post infection, compound absent from day 35): 100 percentage of control | HIV-1-induced cytopathicity in cell culture ([16]; 0.5 μg/ml, day 49 post infection, compound absent from day 35): 100 percentage of control | HIV-1-induced cytopathicity in cell culture ([16]; 0.5 μg/ml, day 53 post infection, compound absent from day 35): 100 percentage of control | HIV-1-induced cytopathicity in cell culture ([16]; 2.5 μg/ml, day 4 post infection): 0 percentage of control | HIV-1-induced cytopathicity in cell culture ([16]; 2.5 μg/ml, day 8 post infection): 0 percentage of control | HIV-1-induced cytopathicity in cell culture ([16]; 2.5 μg/ml, day 11 post infection): 6.25 percentage of control | HIV-1-induced cytopathicity in cell culture ([16]; 2.5 μg/ml, day 14 post infection): 25 percentage of control | HIV-1-induced cytopathicity in cell culture ([16]; 2.5 μg/ml, day 17 post infection): 62.5 percentage of control | HIV-1-induced cytopathicity in cell culture ([16]; 2.5 μg/ml, day 21 post infection): 100 percentage of control | HIV-1-induced cytopathicity in cell culture ([16]; 2.5 μg/ml, day 25 post infection): 100 percentage of control | HIV-1-induced cytopathicity in cell culture ([16]; 2.5 μg/ml, day 28 post infection): 100 percentage of control | HIV-1-induced cytopathicity in cell culture ([16]; 2.5 μg/ml, day 32 post infection): 100 percentage of control | HIV-1-induced cytopathicity in cell culture ([16]; 2.5 μg/ml, day 35 post infection): 100 percentage of control | HIV-1-induced cytopathicity in cell culture ([16]; 2.5 μg/ml, day 39 post infection, compound absent from day 35): 100 percentage of control | HIV-1-induced cytopathicity in cell culture ([16]; 2.5 μg/ml, day 42 post infection, compound absent from day 35): 100 percentage of control | HIV-1-induced cytopathicity in cell culture ([16]; 2.5 μg/ml, day 46 post infection, compound absent from day 35): 100 percentage of control | HIV-1-induced cytopathicity in cell culture ([16]; 2.5 μg/ml, day 49 post infection, compound absent from day 35): 100 percentage of control | HIV-1-induced cytopathicity in cell culture ([16]; 2.5 μg/ml, day 53 post infection, compound absent from day 35): 100 percentage of control
